Measured values from ChEMBL document CHEMBL5528082 (J Med Chem, 2024).
Values after ≈ are worked out from the molar mass of the structure shown.

Legend:
Staphylococcus aureus [1] = assay: Antibacterial activity against Staphylococcus aureus USA 300 incubated for 24 hrs by CLSI based broth microdilution assay; type: functional
[2] = system: Dihydrofolate reductase (Staphylococcus aureus); settings: dose 100.0 nM
Staphylococcus aureus [3] = assay: Antibacterial activity against Staphylococcus aureus ATCC 25923 incubated for 24 hrs by CLSI based broth microdilution assay; type: functional
[4] = Cytotoxicity against human NCM460 cells assessed as inhibition rate of cell growth at 100 uM incubated for 24 hrs by CCK8 assay relative to control; type: toxicity, cell-based
[5] = Cytotoxicity against HEK293 cells assessed as inhibition rate of cell growth at 100 uM incubated for 24 hrs by CCK8 assay relative to control; type: toxicity, cell-based; settings: human
Staphylococcus aureus [6] = assay: Antibacterial activity against TMP-resistant Staphylococcus aureus BHKS 723 incubated for 24 hrs by CLSI based broth microdilution assay; type: functional
Staphylococcus aureus [7] = assay: Antibacterial activity against TMP-resistant Staphylococcus aureus BHKS 721 incubated for 24 hrs by CLSI based broth microdilution assay; type: functional
Staphylococcus aureus [8] = assay: Antibacterial activity against TMP-resistant Staphylococcus aureus BHKS 227 incubated for 24 hrs by CLSI based broth microdilution assay; type: functional

| Compound | MIC (Staphylococcus aureus [1]) [µg/mL] | inhibition [2] [%] | MIC (Staphylococcus aureus [3]) [µg/mL] | inhibition at 24 h, 100 µM [4] [%] | inhibition at 24 h, 100 µM [5] [%] | MIC (Staphylococcus aureus [6]) [µg/mL] | MIC (Staphylococcus aureus [7]) [µg/mL] | MIC (Staphylococcus aureus [8]) [µg/mL] |
| --- | --- | --- | --- | --- | --- | --- | --- | --- |
| CC(C)c1cc(O)c(I)cc1Oc1cnc(N)nc1N | 0.125 (≈ 0.324 µM) | 61.7 | 0.125 (≈ 0.324 µM) | 3 | 30.1 | 4 (≈ 10.4 µM) | 4 (≈ 10.4 µM) | 0.5 (≈ 1.29 µM) |
| COc1cc(C(C)C)c(Oc2cnc(N)nc2N)cc1-c1ccc2c(c1)OCCO2 | 0.25 (≈ 0.612 µM) | 27.2 | 0.5 (≈ 1.22 µM) | 64.7 | 19.6 | 16 (≈ 39.2 µM) | 16 (≈ 39.2 µM) | 4 (≈ 9.79 µM) |
| CCc1cc(Oc2cnc(N)nc2N)c(C(C)CC)cc1OC (stereo not given) | 1 (≈ 3.16 µM) | 4.32 | 1 (≈ 3.16 µM) | 48.4 | 23.2 | 32 (≈ 101 µM) | 16 (≈ 50.6 µM) | 4 (≈ 12.6 µM) |
| CCC(C)c1cc(OC)c(I)cc1Oc1cnc(N)nc1N (stereo not given) | 0.125 (≈ 0.302 µM) | 56.3 | 0.125 (≈ 0.302 µM) | 62.7 | 28.5 | 16 (≈ 38.6 µM) | 8 (≈ 19.3 µM) | 1 (≈ 2.41 µM) |
| CC(C)CCOc1cc(C(C)C)c(Oc2cnc(N)nc2N)cc1I | 0.125 (≈ 0.274 µM) | 79.6 | 0.125 (≈ 0.274 µM) | 35.6 | 64 | 8 (≈ 17.5 µM) | 8 (≈ 17.5 µM) | 2 (≈ 4.38 µM) |
| COc1cc(C(C)C)c(Oc2cnc(NC(C)=O)nc2NC(C)=O)cc1I | > 32 | 32.6 | > 32 | 18.2 | 26.7 | > 32 | > 32 | > 32 |
| CCCCOc1cc(C(C)C)c(Oc2cnc(N)nc2N)cc1-c1ccc(C(C)C)cc1 | 2 (≈ 4.6 µM) | 64 | 1 (≈ 2.3 µM) | 40.9 | 46.6 | 2 (≈ 4.6 µM) | 4 (≈ 9.2 µM) | 8 (≈ 18.4 µM) |
| CC(C)c1ccc(-c2cc(Oc3cnc(N)nc3N)c(C(C)C)cc2OCC2CC2)cc1 | 1 (≈ 2.31 µM) | 75.4 | 1 (≈ 2.31 µM) | 30.2 | 19.3 | 4 (≈ 9.25 µM) | 2 (≈ 4.62 µM) | 4 (≈ 9.25 µM) |
| COc1cc(C(C)C)c(Oc2cnc(N)nc2N)cc1-c1ccc(Cl)c(Cl)c1 | 3 (≈ 7.15 µM) | 60.8 | 0.5 (≈ 1.19 µM) | 34.1 | 41 | 8 (≈ 19.1 µM) | 8 (≈ 19.1 µM) | 2 (≈ 4.77 µM) |
| COc1cc(C(C)C)c(Oc2cnc(N)nc2N)cc1-c1cc(C(F)(F)F)cc(C(F)(F)F)c1 | 8 (≈ 16.4 µM) | > 100 | 4 (≈ 8.22 µM) | 64.2 | 38.6 | 8 (≈ 16.4 µM) | 8 (≈ 16.4 µM) | 8 (≈ 16.4 µM) |
| CC(C)c1cc(OCC2CC2)c(-c2cc(Cl)cc(Cl)c2)cc1Oc1cnc(N)nc1N | 0.5 (≈ 1.09 µM) | 89.2 | 0.5 (≈ 1.09 µM) | 35.8 | 27.5 | 4 (≈ 8.71 µM) | 2 (≈ 4.35 µM) | 2 (≈ 4.35 µM) |
| COc1cc(Cc2cnc(N)nc2N)cc(OC)c1OC [TRIMETHOPRIM] | 0.5 (≈ 1.72 µM) | – | 0.5 (≈ 1.72 µM) | 8.06 | 2.93 | 16 (≈ 55.1 µM) | 16 (≈ 55.1 µM) | 32 (≈ 110 µM) |
| COc1cc(C(C)C)c(Oc2cnc(N)nc2N)cc1-c1ccc(C(F)(F)F)c(Cl)c1 | 2 (≈ 4.42 µM) | 65.7 | 1 (≈ 2.21 µM) | 41.9 | 42.1 | 4 (≈ 8.83 µM) | 4 (≈ 8.83 µM) | 4 (≈ 8.83 µM) |
| CC(C)c1cc(OCC2CC2)c(-c2ccc(OC(F)(F)F)cc2)cc1Oc1cnc(N)nc1N | 0.5 (≈ 1.05 µM) | 78.9 | 0.5 (≈ 1.05 µM) | 31.3 | 22.9 | 4 (≈ 8.43 µM) | 2 (≈ 4.22 µM) | 4 (≈ 8.43 µM) |
| COc1ccc(-c2cc(Oc3cnc(N)nc3N)c(C(C)C)cc2OC)cc1 | 0.125 (≈ 0.329 µM) | 19.9 | 0.25 (≈ 0.657 µM) | 69.5 | 19.9 | 16 (≈ 42.1 µM) | 16 (≈ 42.1 µM) | 1 (≈ 2.63 µM) |
| COc1cc(C(C)C)c(Oc2cnc(N)nc2N)cc1-c1ccc(-c2ccccc2)cc1 | 0.5 (≈ 1.17 µM) | 26.8 | 0.5 (≈ 1.17 µM) | 66 | 31.5 | 4 (≈ 9.38 µM) | 4 (≈ 9.38 µM) | 2 (≈ 4.69 µM) |
| COc1cc(C(C)C)c(Oc2cnc(N)nc2N)cc1C | 1 (≈ 3.47 µM) | 65.9 | 1 (≈ 3.47 µM) | 57.3 | 15.6 | 32 (≈ 111 µM) | 16 (≈ 55.5 µM) | 4 (≈ 13.9 µM) |
| CCCCOc1cc(C(C)C)c(Oc2cnc(N)nc2N)cc1-c1ccc(C(F)(F)F)cc1 | 4 (≈ 8.69 µM) | 90.9 | 2 (≈ 4.34 µM) | 42.3 | 40.2 | 4 (≈ 8.69 µM) | 4 (≈ 8.69 µM) | 4 (≈ 8.69 µM) |
| COc1cc(C(C)C)c(Oc2cnc(N)nc2N)cc1-c1cccc(Cl)c1 | 0.063 (≈ 0.164 µM) | 67.2 | 0.063 (≈ 0.164 µM) | 18.8 | 29.3 | 4 (≈ 10.4 µM) | 4 (≈ 10.4 µM) | 1 (≈ 2.6 µM) |
| CCCC(C)Oc1cc(C(C)C)c(Oc2cnc(N)nc2N)cc1I (stereo not given) | 0.063 (≈ 0.138 µM) | 31.7 | 0.063 (≈ 0.138 µM) | 11.5 | 55.6 | 4 (≈ 8.77 µM) | 4 (≈ 8.77 µM) | 2 (≈ 4.38 µM) |
| COc1cc(C(C)C)c(Oc2cnc(N)nc2N)cc1-c1ccncc1 | 1 (≈ 2.85 µM) | 37.2 | 1 (≈ 2.85 µM) | 6.02 | 2.09 | 32 (≈ 91.1 µM) | > 32 | 4 (≈ 11.4 µM) |
| CCOc1cc(C(C)C)c(Oc2cnc(N)nc2N)cc1I | 0.016 (≈ 0.0386 µM) | 42.6 | 0.016 (≈ 0.0386 µM) | 13.9 | 57.9 | 4 (≈ 9.66 µM) | 4 (≈ 9.66 µM) | 0.25 (≈ 0.604 µM) |
| CCC(C)Oc1cc(C(C)C)c(Oc2cnc(N)nc2N)cc1I (stereo not given) | 0.016 (≈ 0.0362 µM) | 50.8 | 0.016 (≈ 0.0362 µM) | 70.7 | 44.6 | 4 (≈ 9.04 µM) | 4 (≈ 9.04 µM) | 1 (≈ 2.26 µM) |
| COc1cccc(OC)c1C(=O)N[C@@H]1C(=O)N2[C@@H]1SC(C)(C)[C@@H]2C(=O)O [METHICILLIN] | 128 (≈ 336 µM) | – | 1 (≈ 2.63 µM) | – | – | 1 (≈ 2.63 µM) | 1 (≈ 2.63 µM) | 64 (≈ 168 µM) |
| COc1cc(C(C)C)c(Oc2cnc(N)nc2N)cc1-c1ccccc1 | 0.25 (≈ 0.713 µM) | – | 0.5 (≈ 1.43 µM) | 74.2 | 49.2 | 32 (≈ 91.3 µM) | 32 (≈ 91.3 µM) | 2 (≈ 5.71 µM) |
